“And” between values parts separate entries of the source, which are not always exact repeats. Equal values may be shown once. Toxic doses and inconclusive results are not listed. Rule for the calls: active = survival T/C of 150% or more; inactive = T/C below 125% in these data.
Tested on: CD2F1 mice, intracerebral L1210 leukemia, survival T/C
Assay: NCI In Vivo Anticancer Drug Screen. Data for tumor model L1210 Leukemia (intracerebral) in CD2F1 (CDF1) mice
Settings: higher = longer survival
Description: The antitumor activity of compounds was measured in mice bearing transplantable tumors. Survival or tumor size were measured and the results are expressed as the measurement made in the treated group (T) divided by the measurement made in the vehicle treated control group (C). The tumor model used in this assay is L1210 Leukemia (intracerebral) in CD2F1 (CDF1) mice

[1] = endpoint: median survival time, dose: 8.0 mg/kg/injection, schedule: Q01DX009 (ip), vehicle: saline
[2] = endpoint: median survival time, dose: 16.0 mg/kg/injection, schedule: Q01DX005 (ip), vehicle: saline with Tween-80
[3] = endpoint: median survival time, dose: 16.0 mg/kg/injection, schedule: Q01DX009 (ip), vehicle: saline
[4] = endpoint: median survival time, dose: 32.0 mg/kg/injection, schedule: Q01DX005 (ip), vehicle: saline with Tween-80
[5] = endpoint: median survival time, dose: 32.0 mg/kg/injection, schedule: Q01DX009 (ip), vehicle: saline
[6] = endpoint: median survival time, dose: 64.0 mg/kg/injection, schedule: Q01DX005 (ip), vehicle: saline with Tween-80
[7] = endpoint: median survival time, dose: 128.0 mg/kg/injection, schedule: Q01DX005 (ip), vehicle: saline with Tween-80
[8] = endpoint: median survival time, dose: 256.0 mg/kg/injection, schedule: Q01DX009 (ip), vehicle: saline
[9] = endpoint: median survival time, dose: 512.0 mg/kg/injection, schedule: Q01DX009 (ip), vehicle: saline
[10] = endpoint: median survival time, dose: 256.0 mg/kg/injection, schedule: Q01DX005 (ip), vehicle: saline with Tween-80
[11] = endpoint: mean survival time, dose: 2.0 mg/kg/injection, schedule: Q01DX009 (ip), vehicle: saline
[12] = endpoint: mean survival time, dose: 4.0 mg/kg/injection, schedule: Q01DX009 (ip), vehicle: saline
[13] = endpoint: median survival time, dose: 12.5 mg/kg/injection, schedule: Q01DX009 (ip), vehicle: saline
[14] = endpoint: median survival time, dose: 40.0 mg/kg/injection, schedule: Q01DX001 (ip), vehicle: saline
[15] = endpoint: median survival time, dose: 80.0 mg/kg/injection, schedule: Q01DX001 (ip), vehicle: saline
[16] = endpoint: median survival time, dose: 160.0 mg/kg/injection, schedule: Q01DX001 (ip), vehicle: saline

Measured: T/C

CC/C(=C(/CC)c1ccc(O)cc1)c1ccc(O)cc1
inactive: [1] 104 % of control and 113 % of control | [2] 93 % of control and 106 % of control | [3] 104 % of control and 113 % of control | [4] 93 % of control and 103 % of control | [5] 98 % of control and 112 % of control | [6] 103 % of control and 116 % of control | endpoint: median survival time, dose: 64.0 mg/kg/injection, schedule: Q01DX009 (ip), vehicle: saline 105 % of control and 112 % of control | [7] 103 % of control and 105 % of control | [8] 112 % of control | [9] 86 % of control

CN(CCO)/N=N/c1nc[nH]c1C(N)=O
inactive: [4] 107 % of control | [6] 106 % of control | [7] 109 % of control | [10] 119 % of control

S=P(N1CC1)(N1CC1)N1CC1
active: [12] 158 % of control and 162 % of control and 168 % of control
inactive: endpoint: mean survival time, dose: 0.25 mg/kg/injection, schedule: Q01DX009 (ip), vehicle: saline 100 % of control and 104 % of control and 112 % of control | endpoint: mean survival time, dose: 0.5 mg/kg/injection, schedule: Q01DX009 (ip), vehicle: saline 102 % of control and 106 % of control (2×) | endpoint: mean survival time, dose: 1.0 mg/kg/injection, schedule: Q01DX009 (ip), vehicle: saline 104 % of control and 106 % of control and 114 % of control | [11] 124 % of control | endpoint: mean survival time, dose: 8.0 mg/kg/injection, schedule: Q01DX009 (ip), vehicle: saline 86 % of control

N[C@H](C(=O)O)[C@@H]1CC(Cl)=NO1
inactive: endpoint: mean survival time, dose: 16.0 mg/kg/injection, schedule: Q01DX009 (ip), vehicle: saline 124 % of control | endpoint: mean survival time, dose: 32.0 mg/kg/injection, schedule: Q01DX009 (ip), vehicle: saline 101 % of control

CN(C)c1nc(N(C)C)nc(N(C)C)n1
inactive: endpoint: median survival time, dose: 100.0 mg/kg/injection, schedule: Q01DX005 (ip), vehicle: saline with Tween-80 121 % of control | endpoint: median survival time, dose: 100.0 mg/kg/injection, schedule: Q01DX005 (ip), vehicle: suspension in saline 102 % of control | endpoint: median survival time, dose: 200.0 mg/kg/injection, schedule: Q01DX005 (ip), vehicle: saline with Tween-80 101 % of control | endpoint: median survival time, dose: 200.0 mg/kg/injection, schedule: Q01DX005 (ip), vehicle: suspension in saline 101 % of control | endpoint: median survival time, dose: 400.0 mg/kg/injection, schedule: Q01DX005 (ip), vehicle: suspension in saline 100 % of control | endpoint: median survival time, dose: 800.0 mg/kg/injection, schedule: Q01DX005 (ip), vehicle: suspension in saline 118 % of control

CC[n+]1ccc(Nc2ccc(NC(=O)c3ccc(Nc4cc[n+](CC)c5ccc(N)cc45)cc3)cc2)cc1
inactive: [11] 110 % of control | [12] 111 % of control

CCCCCCCCN(C)/N=N/c1nc[nH]c1C(N)=O
inactive: [2] 119 % of control | [4] 121 % of control | [6] 124 % of control | [7] 118 % of control | [10] 89 % of control

COc1ccc2c(c1)CCC(c1ccccc1)=C2c1ccc(OCCN2CCCC2)cc1
inactive: endpoint: median survival time, dose: 12.0 mg/kg/injection, schedule: Q01DX005 (ip), vehicle: Klucel (hydroxypropylcellulose) (HPC) 98 % of control and 101 % of control | endpoint: median survival time, dose: 24.0 mg/kg/injection, schedule: Q01DX005 (ip), vehicle: Klucel (hydroxypropylcellulose) (HPC) 106 % of control | endpoint: median survival time, dose: 48.0 mg/kg/injection, schedule: Q01DX005 (ip), vehicle: Klucel (hydroxypropylcellulose) (HPC) 108 % of control | endpoint: median survival time, dose: 96.0 mg/kg/injection, schedule: Q01DX005 (ip), vehicle: Klucel (hydroxypropylcellulose) (HPC) 106 % of control

CNc1nc(N(C)C)nc(N(C)C)n1
inactive: [13] 98 % of control and 114 % of control

CC1(C)N=C(N)N=C(N)N1c1ccc(OCc2ccc(C(=O)Nc3cccc(S(=O)(=O)F)c3)cc2)c(Cl)c1
inactive: endpoint: mean survival time, dose: 50.0 mg/kg/injection, schedule: Q04DX003 (ip), vehicle: saline 111 % of control | endpoint: mean survival time, dose: 100.0 mg/kg/injection, schedule: Q04DX003 (ip), vehicle: saline 111 % of control

Nc1ccn([C@@H]2C=C(CO)[C@@H](O)[C@H]2O)c(=O)n1
inactive: endpoint: median survival time, dose: 0.44 mg/kg/injection, schedule: Q01DX009 (ip), vehicle: saline 103 % of control | endpoint: median survival time, dose: 0.67 mg/kg/injection, schedule: Q01DX009 (ip), vehicle: saline 114 % of control | endpoint: median survival time, dose: 2.25 mg/kg/injection, schedule: Q01DX009 (ip), vehicle: saline 120 % of control | endpoint: median survival time, dose: 3.76 mg/kg/injection, schedule: Q01DX009 (ip), vehicle: saline 92 % of control

CCC(=O)O[C@H]1CC[C@H]2[C@@H]3CCC4=CC(=O)CC[C@]4(C)[C@H]3CC[C@]12C
active: endpoint: median survival time, dose: 128.0 mg/kg/injection, schedule: Q01DX009 (ip), vehicle: saline 224 % of control
inactive: endpoint: median survival time, dose: 8.0 mg/kg/injection, schedule: Q01DX009 (ip), vehicle: saline with Tween-80 121 % of control | [1] 109 % of control | endpoint: median survival time, dose: 16.0 mg/kg/injection, schedule: Q01DX009 (ip), vehicle: saline with Tween-80 110 % of control | [3] 102 % of control | endpoint: median survival time, dose: 32.0 mg/kg/injection, schedule: Q01DX009 (ip), vehicle: saline with Tween-80 118 % of control | [5] 104 % of control | endpoint: median survival time, dose: 64.0 mg/kg/injection, schedule: Q01DX009 (ip), vehicle: saline with Tween-80 118 % of control | endpoint: median survival time, dose: 128.0 mg/kg/injection, schedule: Q01DX009 (ip), vehicle: saline with Tween-80 110 % of control | endpoint: median survival time, dose: 256.0 mg/kg/injection, schedule: Q01DX009 (ip), vehicle: saline with Tween-80 101 % of control | [8] 120 % of control | endpoint: median survival time, dose: 512.0 mg/kg/injection, schedule: Q01DX009 (ip), vehicle: saline with Tween-80 105 % of control | [9] 116 % of control

Nc1nc(F)nc2c1ncn2C1OC(COP(=O)(O)O)C(O)C1O (centres undefined)
inactive: endpoint: median survival time, dose: 60.0 mg/kg/injection, schedule: Q01DX009 (ip), vehicle: saline 109 % of control | endpoint: median survival time, dose: 90.0 mg/kg/injection, schedule: Q01DX009 (ip), vehicle: saline 106 % of control | endpoint: median survival time, dose: 200.0 mg/kg/injection, schedule: Q01DX009 (ip), vehicle: saline 116 % of control

CC1CN1C(=O)NCCCCCCNC(=O)N1CC1C (centres undefined)
inactive: endpoint: median survival time, dose: 1.25 mg/kg/injection, schedule: Q01DX009 (ip), vehicle: Klucel (hydroxypropylcellulose) (HPC) 103 % of control | endpoint: median survival time, dose: 2.5 mg/kg/injection, schedule: Q01DX009 (ip), vehicle: Klucel (hydroxypropylcellulose) (HPC) 102 % of control | endpoint: median survival time, dose: 5.0 mg/kg/injection, schedule: Q01DX009 (ip), vehicle: Klucel (hydroxypropylcellulose) (HPC) 112 % of control | endpoint: median survival time, dose: 10.0 mg/kg/injection, schedule: Q01DX009 (ip), vehicle: Klucel (hydroxypropylcellulose) (HPC) 120 % of control | endpoint: median survival time, dose: 20.0 mg/kg/injection, schedule: Q01DX009 (ip), vehicle: Klucel (hydroxypropylcellulose) (HPC) 120 % of control

NC(=S)N/N=C/c1ccc(O)cn1
inactive: endpoint: median survival time, dose: 12.0 mg/kg/injection, schedule: Q01DX005 (ip), vehicle: saline 95 % of control and 105 % of control | endpoint: median survival time, dose: 24.0 mg/kg/injection, schedule: Q01DX005 (ip), vehicle: saline 107 % of control and 115 % of control | endpoint: median survival time, dose: 48.0 mg/kg/injection, schedule: Q01DX005 (ip), vehicle: saline 113 % of control and 117 % of control | endpoint: median survival time, dose: 96.0 mg/kg/injection, schedule: Q01DX005 (ip), vehicle: saline 121 % of control

O=P1(N(CCCl)CCCl)NCCCO1 (centres undefined)
inactive: [14] 100 % of control | [15] 104 % of control | [16] 112 % of control | endpoint: median survival time, dose: 320.0 mg/kg/injection, schedule: Q01DX001 (ip), vehicle: saline 105 % of control

O=P1(N(CCCl)CCCl)NC(OO)CCO1 (centres undefined)
inactive: [14] 100 % of control | [15] 102 % of control | [16] 103 % of control

CS(=O)(=O)CS(=O)(=O)OCCCl
inactive: endpoint: median survival time, dose: 6.25 mg/kg/injection, schedule: Q01DX009 (ip), vehicle: saline 104 % of control | [13] 112 % of control
active: endpoint: median survival time, dose: 50.0 mg/kg/injection, schedule: Q01DX009 (ip), vehicle: saline 209 % of control

COC(=O)C(Cc1ccc(N(CCCl)CCCl)cc1)N=NNc1nc[nH]c1C(N)=O (centres undefined)
inactive: endpoint: median survival time, dose: 8.0 mg/kg/injection, schedule: Q01DX005 (ip), vehicle: saline with Tween-80 95 % of control | [2] 115 % of control | [4] 95 % of control

CC(=O)c1ccc(N=NN(C)C)cc1
inactive: endpoint: mean survival time, dose: 5.0 mg/kg/injection, schedule: Q01DX007 (ip), vehicle: other 107 % of control | endpoint: mean survival time, dose: 10.0 mg/kg/injection, schedule: Q01DX007 (ip), vehicle: other 89 % of control | endpoint: mean survival time, dose: 20.0 mg/kg/injection, schedule: Q01DX007 (ip), vehicle: other 97 % of control | endpoint: mean survival time, dose: 40.0 mg/kg/injection, schedule: Q01DX007 (ip), vehicle: other 103 % of control | endpoint: mean survival time, dose: 60.0 mg/kg/injection, schedule: Q01DX007 (ip), vehicle: other 93 % of control

Reference: PubChem BioAssay AID260 (DTP/NCI, 2004)
